# Patent US9381196B2, “Compounds, pharmaceutical compositions and methods of use of hydroxamic acid derivatives” (THE TRANSLATIONAL GENOMICS RESEARCH INSTITUTE, priority 2008, dated 2016)
# Like-named read-outs stand apart in the source and are kept apart here.
# Tests used:
# Skov-3 cells = experiment: CellTiter-Blue cell viability assay, SKOV3 cell line; format: cell-based; conditions: cell growth inhibition
# Excerpt: Cell viability in the presence of varying concentrations of the above listed aspects of the disclosed compound at different time points was used to assess cytotoxicity and the effect of the disclosed compound on cell proliferation.
# MiaPaca cells = experiment: CellTiter-Blue cell viability assay, MiaPaCa cell line; format: cell-based, human; conditions: cell growth inhibition
# Excerpt: (§6) Where X is the logarithm of concentration and Y is the response. Y starts at the Bottom and goes to Top with a sigmoid shape.
# mdamb231 cells = experiment: CellTiter-Blue cell viability assay, mdamb231 cell line; format: cell-based; conditions: cell growth inhibition
# Excerpt: as §6
# A2780 cell line = conditions: 72 hours treatment
# Experimental: (§1) Cell viability was measured by the CellTiter-Blue® cell viability assay Promega (Madison, Wis.). This procedure measures the conversion of the indicator dye (resazurin) to resorufin, an indicator of cell viability. Following treatment, growth media was removed and cells were incubated with 20 μl of CellTiter-Blue® Reagent and growth media for 1-4 hours at 37° C. Fluorescence values were measured at 535/590 nm using a Beckman-Coulter DTX-880 microplate reader.
# (§2) Cells were grown to 70% confluency, trypsinized, counted, and seeded in 96 well flat-bottom plates at a final concentration of 2.5×10^3-5×10^3 cells/well (Day 0). Cells were allowed to incubate in growth media for 24 hours to allow for maximum adhesion. Treatment with the test agents or standard agents began on Day 1 and continued for 72 hours. At the 72 hour timepoint, treatment including media was removed. Viable cell numbers are quantified by the CellTiter-Blue® cell viability assay as described above. Experiments were repeated at least twice with the same concentrations to determine growth inhibitory activity.
# (§3) Single agent and combination studies, data from each experiment was collected and expressed as % Cell Growth using the following calculation: % Cell Growth=(ftest/fvehicle)×100
# (§4) Where ftest is the fluorescence of the tested sample, and fvehicle is the fluorescence of the vehicle in which the drug is dissolved. Dose response graphs and IC50 values were generated using Prism 4 software (GraphPad) using the following equation: […]
# (§5) Where X is the logarithm of concentration and Y is the response.
# H23 cell line = conditions: 72 hours treatment
# Experimental: as §1, §2, §3, §4, §5
# H295R cell line = conditions: 72 hours treatment
# Experimental: as §1, §2, §3, §4, §5
# MV522 cell line = conditions: 72 hours treatment
# Experimental: as §1, §2, §3, §4, §5
# PANC-1 cell line = conditions: 72 hours treatment
# Experimental: as §1, §2, §3, §4, §5
# VCAP cell line = conditions: 72 hours treatment
# Experimental: as §1, §2, §3, §4, §5
# [1] = tested on: MIA PaCa-2 human pancreas cells xenograft; conditions: MIA PaCa-2 xenograft in nude mice
# Experimental: In vivo efficacy of the disclosed compound was tested through a human pancreas tumor xenograft model. Female Ncr nude mice were inoculated with 1×10^7 MIA PaCa-2 human pancreas cells suspended in a mixture of 50% Matrigel and 50% tissue culture media in a total volume of […] When the tumors reached a mean weight of 157 mg, the mice were separated into four groups of 7-8 mice per group and treated. One group was treated with vehicle only. A second group was treated with Compound ID #15 at 50 mg/kg. A third group was treated with Compound ID #15 at 100 mg/kg and a fourth group was treated with Gemcitabine at 80 mg/kg. Vehicle and Compound ID #15 were administered by mouth while Gemcitabine was administered via an intraperitoneal injection. Body weights and tumor size data were collected twice weekly. Tumor width and length were measured in millimeters and converted to tumor weight (in milligrams) using the formula (width^2×Length/2)=tumor weight (mg.)
# [2] = Homo sapiens, SK-OV-3, 72 hours treatment
# [3] = Homo sapiens, MIA PaCa-2, 72 hours treatment
# [4] = Homo sapiens, MDA-MB-231, 72 hours treatment
Compound,IC50 (Skov-3 cells; [2]) [µM],IC50 (MiaPaca cells; [3]) [µM],also measured
7-(5-bromo-1H-benzimidazol-2-yl)-N-hydroxy heptanamide [Compound ID 15],–,–,"IC50 (Skov-3 cells; 72 hours treatment): 0.27 µM; IC50 (MiaPaca cells; 72 hours treatment): 0.82 µM; IC50 (mdamb231 cells; 72 hours treatment): 0.89 µM; IC50 (A2780 cell line): 1.9 µM; IC50 (H23 cell line): 0.56 µM; IC50 (H295R cell line): 0.18 µM; IC50 (MV522 cell line): 2.2 µM; IC50 (PANC-1 cell line): 0.13 µM; IC50 (VCAP cell line): 2.4 µM; slowing growth of the xenografts ([1]; 50 mg/kg by mouth): no more effective than the vehicle control; slowing growth of the xenografts ([1]; 100 mg/kg by mouth, comparator gemcitabine 80 mg/kg intraperitoneal): about as effective as gemcitabine"
"O=C(CCCCCCc1nc2ccccc2[nH]1)NO [Compound ID 14, 7-(1H-benzo[d]imidazol-2-yl)-N-hydroxyheptanamide]",2.7,1.9,–
"O=C(CCCCCc1nc2ccccc2[nH]1)NO [Compound ID 16, 6-(1H-benzo[d]imidazol-2-yl)-N-hydroxyhexanamide]",11,–,–
"Cn1c(CCCCCCC(=O)NO)nc2ccccc21 [Compound ID 19, N-hydroxy-7-(1-methyl-1H-benzo[d]imidazol-2-yl) heptanamide]",–,–,IC50 (Skov-3 cells; 72 hours treatment): 3 µM
"O=C(CCCCCCc1nc2cc(Cl)ccc2[nH]1)NO [Compound ID 22, 7-(5-chloro-1H-benzo[d]imidazol-2-yl)-N-hydroxyheptanamide]",0.32,–,–
"O=C(CCCCCCc1nc2ccncc2[nH]1)NO [Compound ID 23, N-hydroxy-7-(3H-imidazo[4,5-c]pyridin-2-yl)heptanamide]",> 10,> 10,–
"O=C(CCCCCCc1nc2ccccc2n1C1CCCC1)NO [Compound ID 25, 7-(1-cyclopentyl-1H-benzo[d]imidazol-2-yl)-N-hydroxyheptanamide]",4.8,2.3,–
"O=C(CCCCCCc1nc2c(Cl)cccc2[nH]1)NO [Compound ID 26, 7-(4-chloro-1H-benzo[d]imidazol-2-yl)-N-hydroxyheptanamide]",10.2,8.5,–
"O=C(CCCCCCc1nc2ccccc2n1-c1ccccc1)NO [Compound ID 27, N-hydroxy-7-(1-phenyl-1H-benzo[d]imidazol-2-yl)heptanamide]",> 10,> 10,–
"CN(C)c1ccc(-c2ccc3[nH]c(CCCCCCC(=O)NO)nc3c2)cc1 [Compound ID 31, 7-(5-(4-(dimethylamino)phenyl)-1H-benzo[d]imidazol-2-yl)-N-hydroxyheptanamide]",6.6,–,–
"O=C(CCCCCCc1nc2cc(-c3ccccc3F)ccc2[nH]1)NO [Compound ID 32, 7-(5-(2-fluorophenyl)-1H-benzo[d]imidazol-2-yl)-N-hydroxyheptanamide]",7.4,–,–

# Now from value to compound, other results behind:
IC50 (Skov-3 cells; [2]) [µM],IC50 (MiaPaca cells; [3]) [µM],Compound,also measured
> 10,–,"COc1ccc2[nH]c(CCCCCCC(=O)NO)nc2c1 [Compound ID 17, N-hydroxy-7-(5-methoxy-1H-benzo[d]imidazol-2-yl)heptanamide]",–
0.098,0.4,"O=C(CCCCCCc1nc2cc(-c3ccccc3)ccc2[nH]1)NO [Compound ID 18, N-hydroxy-7-(5-phenyl-1H-benzo[d]imidazol-2-yl)heptanamide]",–
1.2,–,"CN(C)c1ccc2[nH]c(CCCCCCC(=O)NO)nc2c1 [Compound ID 20, 7-(5-(dimethylamino)-1H-benzo[d]imidazol-2-yl)-N-hydroxyheptanamide]",–
1.9,–,"O=C(CCCCCCc1nc2cc(F)ccc2[nH]1)NO [Compound ID 21, 7-(5-fluoro-1H-benzo[d]imidazol-2-yl)-N-hydroxyheptanamide]",–
9.5,4,"O=C(CCCCCCc1nc2ccccc2n1C1CC1)NO [Compound ID 24, 7-(1-cyclopropyl-1H-benzo[d]imidazol-2-yl)-N-hydroxyheptanamide]",–
2.6,–,"O=C(CCCCCCc1nc2cc(-c3cncnc3)ccc2[nH]1)NO [Compound ID 28, N-hydroxy-7-(5-(pyrimidin-5-yl)-1H-benzo[d]imidazol-2-yl)heptanamide]",IC50 (mdamb231 cells; [4]): 0.54 µM
1.2,–,"O=C(CCCCCCc1nc2cc(-c3ccc(F)cc3)ccc2[nH]1)NO [Compound ID 29, 7-(5-(4-fluorophenyl)-1H-benzo[d]imidazol-2-yl)-N-hydroxyheptanamide]",IC50 (mdamb231 cells; [4]): 0.21 µM
1.5,–,"O=C(CCCCCCc1nc2cc(-c3cccc(F)c3)ccc2[nH]1)NO [Compound ID 30, 7-(5-(3-fluorophenyl)-1H-benzo[d]imidazol-2-yl)-N-hydroxyheptanamide]",IC50 (mdamb231 cells; [4]): 0.33 µM
3.2,–,"COc1ccc(-c2ccc3[nH]c(CCCCCCC(=O)NO)nc3c2)cc1 [Compound ID 33, N-hydroxy-7-(5-(4-methoxyphenyl)-1H-benzo[d]imidazol-2-yl)heptanamide]",–
